ChEMBL document CHEMBL1765010, “Reversible competitive α-ketoheterocycle inhibitors of fatty acid amide hydrolase containing additional conformational constraints in the acyl side chain: orally active, long-acting analgesics” (J Med Chem, 2011)

These compounds were tested against T1, Fatty-acid amide hydrolase 1 (Rattus norvegicus, UniProt P97612) (assay: Inhibition of rat FAAH expressed in E. coli assessed as [14C]-labeled oleamide to oleic acid conversion).
T1 sequence (P97612 whole entry): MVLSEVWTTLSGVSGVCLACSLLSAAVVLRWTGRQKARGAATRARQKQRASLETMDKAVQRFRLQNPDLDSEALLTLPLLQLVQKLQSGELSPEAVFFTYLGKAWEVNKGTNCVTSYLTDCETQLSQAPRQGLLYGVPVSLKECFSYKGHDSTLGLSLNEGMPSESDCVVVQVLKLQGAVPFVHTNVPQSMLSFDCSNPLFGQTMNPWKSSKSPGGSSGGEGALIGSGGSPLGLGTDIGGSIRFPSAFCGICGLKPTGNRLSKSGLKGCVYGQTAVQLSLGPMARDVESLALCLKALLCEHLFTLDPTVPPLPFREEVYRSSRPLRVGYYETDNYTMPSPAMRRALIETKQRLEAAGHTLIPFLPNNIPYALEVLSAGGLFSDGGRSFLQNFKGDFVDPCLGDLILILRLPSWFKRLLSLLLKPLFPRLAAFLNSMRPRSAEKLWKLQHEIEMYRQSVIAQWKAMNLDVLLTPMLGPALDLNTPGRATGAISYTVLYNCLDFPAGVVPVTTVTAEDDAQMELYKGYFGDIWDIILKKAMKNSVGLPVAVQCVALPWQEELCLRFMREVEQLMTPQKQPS

| Compound | Ki |
| --- | --- |
| O=C(c1ncco1)[C@H]1Cc2ccc(Oc3ccccc3)cc2C1 | 10 nM |
| O=C(c1nnco1)[C@@H]1CCc2cc(Oc3ccccc3)ccc2C1 | 1.4 nM |
| O=C(c1ncco1)[C@H]1CCc2cc(-c3ccccc3)ccc2C1 | 57 nM |
| COC(=O)c1cnc(C(=O)[C@@H]2CCc3cc(Oc4ccccc4)ccc3C2)o1 | 59 nM |
| O=C(c1ncco1)[C@H]1CCc2cc(OCc3ccccc3)ccc2C1 | 6.1 nM |
| O=C(c1nnc(-c2ccccn2)o1)[C@@H]1CCc2cc(Oc3ccccc3)ccc2C1 | 6.3 nM |
| O=C(c1ncco1)[C@@H]1CCc2cc(Oc3ccccc3)ccc2C1 | 410 nM |
| N#Cc1cnc(C(=O)[C@H]2CCc3cc(OCc4ccccc4)ccc3C2)o1 | 3.2 nM |
| O=C(c1ncco1)[C@H]1Cc2ccc(-c3ccccc3)cc2C1 | 27 nM |
| N#Cc1cnc(C(=O)[C@@H]2CCc3cc(OCc4ccccc4)ccc3C2)o1 | 120 nM |
| O=C(c1ncc(-c2ccccn2)o1)[C@@H]1CCc2ccccc2C1 | 3200 nM |
| O=C(c1ncco1)[C@@H]1Cc2ccc(Oc3ccccc3)cc2C1 | 200 nM |
| O=C(c1ncc(-c2ccccn2)o1)[C@H]1Cc2ccc(Oc3ccccc3)cc2C1 | 2.1 nM |
| O=C(c1ncc(-c2ccccn2)o1)[C@H]1CCc2ccccc2C1 | 430 nM |
| O=C(c1ncc(-c2ccccn2)o1)[C@H]1Cc2ccc(OCc3ccccc3)cc2C1 | 1.4 nM |
| O=C(c1ncco1)[C@@H]1CCc2ccccc2C1 | 12000 nM |
| N#Cc1cnc(C(=O)[C@@H]2CCc3cc(Oc4ccccc4)ccc3C2)o1 | 54 nM |
| O=C(c1ncco1)[C@@H]1Cc2ccc(-c3ccccc3)cc2C1 | 140 nM |
| O=C(c1nnco1)[C@H]1CCc2cc(Oc3ccccc3)ccc2C1 | 0.5 nM |
| COC(=O)c1cnc(C(=O)[C@H]2CCc3cc(OCc4ccccc4)ccc3C2)o1 | 2.9 nM |
| COC(=O)c1cnc(C(=O)[C@H]2CCc3cc(Oc4ccccc4)ccc3C2)o1 | 5.4 nM |
| O=C(c1ncc(I)o1)C1CCc2cc(OCc3ccccc3)ccc2C1 (racemic) | 8 nM |
| COC(=O)c1nnc(C(=O)[C@@H]2CCc3cc(Oc4ccccc4)ccc3C2)o1 | 1.6 nM |

Second part, the compound after the results:

| Ki | Compound |
| --- | --- |
| 27 nM | COC(=O)c1cccc(-c2cnc(C(=O)[C@H]3CCc4cc(-c5ccccc5)ccc4C3)o2)n1 |
| 300 nM | O=C(c1ncc(-c2ccccn2)o1)[C@@H]1CCc2cc(OCc3ccccc3)ccc2C1 |
| 98 nM | COC(=O)c1cccc(-c2cnc(C(=O)[C@H]3Cc4ccc(Oc5ccccc5)cc4C3)o2)n1 |
| 51 nM | O=C(O)c1cccc(-c2cnc(C(=O)[C@H]3Cc4ccc(OCc5ccccc5)cc4C3)o2)n1 |
| 240 nM | O=C(c1ncc(-c2ccccn2)o1)[C@@H]1CCc2cc(-c3ccccc3)ccc2C1 |
| 3.2 nM | O=C(c1ncc(-c2ccccn2)o1)[C@H]1CCc2cc(OCc3ccccc3)ccc2C1 |
| 460 nM | O=C(c1ncco1)[C@@H]1CCc2cc(-c3ccccc3)ccc2C1 |
| 4500 nM | COC(=O)c1cccc(-c2cnc(C(=O)[C@@H]3CCc4cc(OCc5ccccc5)ccc4C3)o2)n1 |
| 5.8 nM | COC(=O)c1cccc(-c2cnc(C(=O)[C@H]3Cc4ccc(OCc5ccccc5)cc4C3)o2)n1 |
| 62 nM | N#Cc1cnc(C(=O)[C@@H]2CCc3cc(-c4ccccc4)ccc3C2)o1 |
| 130 nM | COC(=O)c1cccc(-c2cnc(C(=O)[C@@H]3Cc4ccc(OCc5ccccc5)cc4C3)o2)n1 |
| 550 nM | O=C(O)c1cccc(-c2cnc(C(=O)[C@@H]3Cc4ccc(Oc5ccccc5)cc4C3)o2)n1 |
| 660 nM | O=C(O)c1cccc(-c2cnc(C(=O)[C@@H]3Cc4ccc(OCc5ccccc5)cc4C3)o2)n1 |
| 55 nM | COC(=O)c1cnc(C(=O)[C@H]2CCc3cc(-c4ccccc4)ccc3C2)o1 |
| 2.2 nM | COC(=O)c1cccc(-c2cnc(C(=O)[C@H]3CCc4cc(Oc5ccccc5)ccc4C3)o2)n1 |
| 740 nM | O=C(O)c1cccc(-c2cnc(C(=O)[C@@H]3CCc4cc(OCc5ccccc5)ccc4C3)o2)n1 |
| 700 nM | COC(=O)c1cccc(-c2cnc(C(=O)[C@@H]3CCc4cc(-c5ccccc5)ccc4C3)o2)n1 |
| 290 nM | O=C(c1ncc(-c2ccccn2)o1)[C@@H]1CCc2cc(Oc3ccccc3)ccc2C1 |
